These results are taken from patent US20170368052A1, “CRYSTAL FORMS OF APOMORPHINE AND USES THEREOF” (NeuroDerm, Ltd., priority 2014, published 2017).

The conditions of series [1]: amine bases used for salt release in IPA; cited from earlier work.
Series [2] can be described thus: Stability study of the isolated solid to air and light (HPLC profile). It is filed as physicochemical. Here is the method: The 3-amino-1-propanol mediated salt release of apomorphine was scaled to 10 g in IPA (10 vol), and in order to aid the mobility of the reaction, the addition of the 3-amino-1-propanol was performed at 40-45° C. […] The slurry was cooled and aged over 16 h at 18 to 23° C.
Samples of solids isolated from an IPA recrystallization of the free base, salt released via the 3-amino-1-propanol route were monitored by their color change and their HPLC profile. The HPLC profiles are described in Table 8.

Series [3] in a line: Stability of the reaction mixture at 40-45° C. (HPLC profile). The series is classed as physicochemical. The settings on record: 40° C. On the procedure: The effect of adding ascorbic acid-6-palmitate on stability of the reaction mixture and the isolated solid was determined in a larger scale reaction (A0513-68). On a 10 g scale, ascorbic acid-6-palmitate (0.01 wt) was added to a flask with the apomorphine hydrochloride salt and IPA (10 vol). 3-amino-1-propanol (2.5 ml, 1.1 eq, 0.25 vol) was added at 40-45° C., and a slurry was present throughout. The slurry was stirred at 40-45° C. for 2 h; at this point 10% of the reaction mixture was removed for an extended stability study at 40-45° C. The remainder of the reaction was cooled and aged over 16 h to 18-23° C. The solid was filtered and washed with IPA (2×3 vol) and resulted a white solid (liquor was pale yellow). The solid was dried under a flow of nitrogen for 30 min. The yield was 7.03 g (79.8%, corrected for 18.3% w/w IPA, approximately 1 eq), 100% area by HPLC (Note: 10% of the reaction mixture was removed for the stability study, therefore this yield is at the expected approximately 90% level, and the combined mother liquor and washes contained 7.6% of theoretical yield by assay). In this material the ascorbic acid-6-palmitate and 3-amino-1-propanol in the product were below detectable levels by ^1H NMR analysis.
Stability of the reaction mixture was compared with and without ascorbic acid-6-palmitate. Each reaction was held at 40-45° C. and both the color and the HPLC profile monitored. HPLC purity profiles are shown on Table 6.

A short description of series [4]: Stability of the reaction mixture at reflux in IPA with/without ascorbic acid-6-palmitate (HPLC). The series is classed as physicochemical. Here is the method: In this case, the base was added under reflux and the procedure compared with and without ascorbic acid-6-palmitate as an antioxidant (Table 7).
The mark [5] stands for this setting: isolated stability to air and light (2 days).
Where [6] appears, read: isolated stability to air and light (5 days).
Where [7] appears, read: isolated stability to air and light (17 days).
[8] abbreviates: from reaction containing asc, stability of solid in air and light (5 days).
The mark [9] stands for this setting: from reaction containing asc, stability of solid in air and light (14 days).
Setting [10] is: isolated from reaction containing asc (1 day).
Setting [11] is: ascorbic acid-6-palmitate, 24 h.
Setting [12] is: ascorbic acid-6-palmitate, 48 h.
The mark [13] stands for this setting: ascorbic acid-6-palmitate, 120 h.
Where [14] appears, read: no ascorbic acid-6-palmitate, solution at reflux.
[15] abbreviates: no ascorbic acid-6-palmitate, liquors.
The mark [16] stands for this setting: no ascorbic acid-6-palmitate, isolated solid.
[17] abbreviates: with ascorbic acid-6-palmitate, liquors.

A word on the pKa: it is the negative logarithm of the acid dissociation constant. For the compound `NCCCO` [3-amino-1-propanol], the pKa in series [1] is given as 10.23.

For `CC(C)O.CN1CCc2cccc3c2[C@H]1Cc1ccc(O)c(O)c1-3` [A0513-64-05, apomorphine free base mono-IPA solvate], the “% area: RRT 1.00” value in series [2] (isolated solid, no ascorbic acid-6-palmitate, output) is 100.00 % area; in series [2] (setting [5]), 99.98 % area; in series [2] (setting [6]) it was 99.95 % area; in series [2] (setting [7]), 99.92 % area. Moreover, the “% area: RRT 1.71” value in series [2] (setting [5]) came out at 0.02 % area; in series [2] (setting [6]), 0.03 % area; in series [2] (setting [7]), 0.02 % area. Besides, the results for the “% area: RRT 1.76” value in series [2] (setting [6]) and in series [2] (setting [7]) were 0.02 % area and 0.03 % area, respectively. The “% area: RRT 0.41” value in series [2] (setting [7]) turned out to be 0.03 % area.

Turning to `CC(C)O.CN1CCc2cccc3c2[C@H]1Cc1ccc(O)c(O)c1-3` [A0513-68-01, apomorphine free base mono-IPA solvate], in series [2] (setting [8]), the “% area: RRT 1.00” value was found to be 99.97 % area and the “% area: RRT 1.71” value was 0.03 % area. Besides, in series [2] (setting [9]), the “% area: RRT 0.41” value amounted to 0.01 % area, the “% area: RRT 1.00” value was 99.92 % area, the “% area: RRT 1.71” value is on record as 0.03 % area and the “% area: RRT 1.76” value was 0.02 % area. Also, in series [2] (setting [9]), the “% area: RRT 2.02” value worked out at 0.02 % area. Besides, in series [2] (setting [10]), the “% area: RRT 1.00” value is reported as 99.98 % area and the “% area: RRT 1.71” value was determined as 0.02 % area.

In the case of `CN1CCc2cccc3c2C1Cc1ccc(O)c(O)c1-3` (centres unmarked) [A0513-68A-03], in series [3] (setting [11]), the “% area: RRT 1.00” value is given as 99.93 % area, the “% area: RRT 1.71” value came to 0.05 % area and the “% area: RRT 1.76” value turned out to be 0.03 % area. In series [3] (setting [12]), the “% area: RRT 1.00” value worked out at 99.96 % area and the “% area: RRT 1.71” value is 0.04 % area. In addition, in series [3] (setting [13]), the “% area: RRT 1.00” value is 99.86 % area, the “% area: RRT 1.25” value was 0.04 % area, the “% area: RRT 1.71” value was found to be 0.06 % area and the “% area: RRT 1.76” value was determined as 0.04 % area.

As to `CN1CCc2cccc3c2C1Cc1ccc(O)c(O)c1-3` (centres unmarked) [A0513-72-01], in series [3] (poor purging, 24 h), the “% area: RRT 0.74” value was determined as 0.22 % area, the “% area: RRT 1.00” value was found to be 98.18 % area, the “% area: RRT 1.09” value came out at 0.13 % area and the “% area: RRT 1.22” value came to 0.44 % area. Moreover, in series [3] (poor purging, 24 h), the “% area: RRT 1.25” value is listed as 0.10 % area, the “% area: RRT 1.37” value is recorded as 0.15 % area and the “% area: RRT 1.50” value is 0.07 % area. Further, in series [3] (poor purging, 48 h), the “% area: RRT 0.74” value stood at 0.10 % area, the “% area: RRT 1.00” value was determined as 94.66 % area, the “% area: RRT 1.09” value was 2.32 % area and the “% area: RRT 1.22” value is recorded as 0.42 % area. Also, in series [3] (poor purging, 48 h), the “% area: RRT 1.25” value was found to be 1.46 % area, the “% area: RRT 1.37” value is 0.16 % area and the “% area: RRT 1.50” value is on record as 0.10 % area.

For `CN1CCc2cccc3c2C1Cc1ccc(O)c(O)c1-3` (centres unmarked) [A0513-76-01], in series [3] (effective purging, 24 h), the “% area: RRT 1.00” value stood at 99.90 % area, the “% area: RRT 1.71” value worked out at 0.06 % area and the “% area: RRT 1.76” value is reported as 0.04 % area. For the same compound, in series [3] (effective purging, 96 h), the “% area: RRT 1.00” value came to 99.90 % area, the “% area: RRT 1.71” value is listed as 0.06 % area and the “% area: RRT 1.76” value amounted to 0.04 % area.

`CN1CCc2cccc3c2C1Cc1ccc(O)c(O)c1-3` (centres unmarked) [A0513-94-01]: in series [4] (setting [14]), the “% area: RRT 1.00” value worked out at 99.56 % area, the “% area: RRT 1.09” value is 0.05 % area, the “% area: RRT 1.25” value turned out to be 0.06 % area and the “% area: RRT 1.71” value is 0.06 % area. The “% area: RRT 1.76” value in series [4] (setting [14]) was 0.04 % area.

In the case of `CN1CCc2cccc3c2C1Cc1ccc(O)c(O)c1-3` (centres unmarked) [A0513-94-02], in series [4] (setting [15]), the “% area: RRT 1.00” value amounted to 92.99 % area, the “% area: RRT 1.09” value was found to be 1.79 % area, the “% area: RRT 1.25” value was found to be 0.57 % area and the “% area: RRT 1.29” value amounted to 1.20 % area. Further, in series [4] (setting [15]), the “% area: RRT 1.50” value is given as 0.22 % area, the “% area: RRT 1.71” value was found to be 0.34 % area and the “% area: RRT 1.76” value is 0.43 % area.

In the case of `CC(C)O.CN1CCc2cccc3c2C1Cc1ccc(O)c(O)c1-3` (centres unmarked) [A0513-94-03], in series [4] (setting [16]), the “% area: RRT 1.00” value is 99.81 % area, the “% area: RRT 1.25” value came out at 0.13 % area and the “% area: RRT 1.71” value stood at 0.02 % area.

On to `CN1CCc2cccc3c2C1Cc1ccc(O)c(O)c1-3` (centres unmarked) [A0513-98-02], for which, in series [4] (setting [17]), the “% area: RRT 1.00” value is given as 95.62 % area, the “% area: RRT 1.09” value was determined as 1.25 % area, the “% area: RRT 1.25” value came out at 0.19 % area and the “% area: RRT 1.29” value was found to be 0.61 % area. Also, in series [4] (setting [17]), the “% area: RRT 1.50” value is recorded as 0.12 % area, the “% area: RRT 1.71” value is listed as 0.45 % area and the “% area: RRT 1.76” value was 0.34 % area.
